Legend:
Cytochrome P450 1A2 = molecular target: T1, Cytochrome P450 1A2 (Homo sapiens, UniProt P05177); settings: bti-tn-5b1-4; also: in other assays of this panel Not Active means under 50% inhibition at 10 µM
T1 sequence (P05177 whole entry): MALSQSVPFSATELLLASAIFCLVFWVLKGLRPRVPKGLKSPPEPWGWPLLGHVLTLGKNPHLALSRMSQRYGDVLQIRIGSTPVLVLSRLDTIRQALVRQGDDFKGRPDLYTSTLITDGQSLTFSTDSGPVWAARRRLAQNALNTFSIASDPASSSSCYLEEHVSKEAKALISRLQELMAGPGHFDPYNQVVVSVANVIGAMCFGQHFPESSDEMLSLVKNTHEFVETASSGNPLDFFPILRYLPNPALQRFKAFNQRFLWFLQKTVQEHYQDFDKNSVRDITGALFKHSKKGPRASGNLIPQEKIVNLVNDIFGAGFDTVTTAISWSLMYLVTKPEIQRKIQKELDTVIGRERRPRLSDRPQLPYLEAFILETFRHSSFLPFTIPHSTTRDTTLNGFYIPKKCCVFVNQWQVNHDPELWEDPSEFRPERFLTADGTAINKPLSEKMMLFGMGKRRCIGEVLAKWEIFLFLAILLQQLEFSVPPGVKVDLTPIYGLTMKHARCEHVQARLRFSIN

[1] = DRUGMATRIX: Phorbol Ester radioligand binding (ligand: [3H] PDBu); type: cell membranes, Mus musculus, ICR, Brain, Membrane; settings: Not Active = under 50% inhibition at 10 µM
Estrogen receptor = molecular target: T2, Estrogen receptor (Homo sapiens, UniProt P03372); settings: sf9; also: in other assays of this panel Not Active means under 50% inhibition at 10 µM
T2 sequence (P03372 whole entry): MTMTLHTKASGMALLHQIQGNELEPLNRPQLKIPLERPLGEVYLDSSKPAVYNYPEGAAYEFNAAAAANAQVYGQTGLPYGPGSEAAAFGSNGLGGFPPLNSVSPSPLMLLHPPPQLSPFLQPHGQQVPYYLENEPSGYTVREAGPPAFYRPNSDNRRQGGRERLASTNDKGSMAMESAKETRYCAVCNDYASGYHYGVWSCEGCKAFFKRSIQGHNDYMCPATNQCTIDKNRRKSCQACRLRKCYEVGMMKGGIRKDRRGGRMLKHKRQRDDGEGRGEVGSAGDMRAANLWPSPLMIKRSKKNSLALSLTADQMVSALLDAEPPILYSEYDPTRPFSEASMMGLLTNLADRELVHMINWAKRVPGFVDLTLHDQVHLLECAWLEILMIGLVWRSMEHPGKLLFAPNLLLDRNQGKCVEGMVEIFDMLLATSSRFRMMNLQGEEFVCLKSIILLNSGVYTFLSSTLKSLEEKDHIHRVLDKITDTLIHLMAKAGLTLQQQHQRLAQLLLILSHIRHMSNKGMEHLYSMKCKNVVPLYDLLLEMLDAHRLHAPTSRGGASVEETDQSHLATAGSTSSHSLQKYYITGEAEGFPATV

[2] = DRUGMATRIX: Purinergic P2X radioligand binding (ligand: [3H] alpha, beta-Methylene-ATP); type: cell membranes, Oryctolagus cuniculus, New Zealand albino, Urinary bladder, Membrane; settings: Not Active = under 50% inhibition at 10 µM
[3] = DRUGMATRIX: beta-Lactamase enzyme inhibition (substrate: Nitrocefin); set-up: species or system Bacillus cereus; settings: Not Active = under 50% inhibition at 10 µM
[4] = DRUGMATRIX: Phosphodiesterase PDE4 enzyme inhibition (substrate: [3H]cAMP + cAMP); settings: u-937; Not Active = under 50% inhibition at 10 µM
[5] = molecular target: Matrix metalloproteinase-9 (Homo sapiens, UniProt P14780); assay: biochemical; type: cell-based;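 also: inhibition of isolated MMP-9 enzyme activity toward a synthetic peptide substrate, from the DrugMatrix protease screening panel; in other assays of this panel Not Active means under 50% inhibition at 10 µM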
Caspase-1 = molecular target: T3, Caspase-1 (Homo sapiens, UniProt P29466); set-up: species or system Escherichia coli;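 also: Caspase-1 enzyme inhibition assay with a peptide substrate; in other assays of this panel Not Active means under 50% inhibition at 10 µM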
T3 sequence (P29466 whole entry): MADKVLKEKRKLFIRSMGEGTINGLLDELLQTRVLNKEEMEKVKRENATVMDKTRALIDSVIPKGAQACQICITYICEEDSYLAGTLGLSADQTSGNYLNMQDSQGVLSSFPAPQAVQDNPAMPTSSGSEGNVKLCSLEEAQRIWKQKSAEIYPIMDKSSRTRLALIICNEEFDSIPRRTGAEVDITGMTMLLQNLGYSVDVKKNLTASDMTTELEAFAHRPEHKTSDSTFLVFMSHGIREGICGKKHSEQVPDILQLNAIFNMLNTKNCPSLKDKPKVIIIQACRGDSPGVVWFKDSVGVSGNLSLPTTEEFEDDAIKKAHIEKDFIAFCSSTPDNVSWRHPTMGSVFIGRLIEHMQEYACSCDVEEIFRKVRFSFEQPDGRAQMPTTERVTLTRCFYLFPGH

[6] = DRUGMATRIX: Glutamate, NMDA, Agonism radioligand binding (ligand: [3H] CGP-39653); type: cell membranes, Rattus norvegicus, Wistar, Cerebral cortex, Membrane; settings: Not Active = under 50% inhibition at 10 µM

Matrix metalloproteinase-9, sequence (P14780 whole entry): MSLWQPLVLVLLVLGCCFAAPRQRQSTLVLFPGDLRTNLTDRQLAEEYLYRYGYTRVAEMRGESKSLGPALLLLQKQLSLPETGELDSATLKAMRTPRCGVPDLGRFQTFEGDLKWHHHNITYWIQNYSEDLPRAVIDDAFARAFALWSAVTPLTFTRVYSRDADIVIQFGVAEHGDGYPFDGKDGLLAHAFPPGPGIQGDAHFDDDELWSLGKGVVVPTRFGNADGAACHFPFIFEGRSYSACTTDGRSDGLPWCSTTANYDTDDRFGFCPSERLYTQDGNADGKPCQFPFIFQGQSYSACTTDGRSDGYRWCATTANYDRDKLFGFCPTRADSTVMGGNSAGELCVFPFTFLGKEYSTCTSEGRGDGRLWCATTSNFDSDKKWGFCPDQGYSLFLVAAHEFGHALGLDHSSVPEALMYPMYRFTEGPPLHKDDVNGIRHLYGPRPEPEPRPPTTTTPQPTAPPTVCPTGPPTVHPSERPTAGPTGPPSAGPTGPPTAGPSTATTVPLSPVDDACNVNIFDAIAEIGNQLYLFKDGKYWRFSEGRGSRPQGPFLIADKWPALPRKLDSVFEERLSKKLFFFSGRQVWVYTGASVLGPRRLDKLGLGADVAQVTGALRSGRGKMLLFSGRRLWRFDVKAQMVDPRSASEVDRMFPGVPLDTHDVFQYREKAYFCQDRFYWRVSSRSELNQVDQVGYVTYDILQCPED

CC(C)(Oc1ccc(C2CC2(Cl)Cl)cc1)C(=O)O (stereo not given) [CIPROFIBRATE]
Not Active: IC50 (Cytochrome P450 1A2) | Ki (Cytochrome P450 1A2) | IC50 [1] | Ki [1] | IC50 (Estrogen receptor) | IC50 [2] | Ki [2] | IC50 [3] | Ki [3] | IC50 [4] | Ki [4] | IC50 [5] | IC50 (Caspase-1) | IC50 [6] | Ki [6]

CC[C@H]1OC(=O)[C@H](C)[C@@H](O[C@H]2C[C@@](C)(OC)[C@@H](O)[C@H](C)O2)[C@H](C)[C@@H](O[C@@H]2O[C@H](C)C[C@H](N(C)C)[C@H]2O)[C@](C)(OC)C[C@@H](C)C(=O)[C@H](C)[C@@H](O)[C@]1(C)O [CLARITHROMYCIN]
Not Active: IC50 (Cytochrome P450 1A2) | Ki (Cytochrome P450 1A2) | IC50 [1] | Ki [1] | IC50 (Estrogen receptor) | IC50 [2] | Ki [2] | IC50 [3] | Ki [3] | IC50 [4] | Ki [4] | IC50 [5] | IC50 (Caspase-1) | IC50 [6] | Ki [6]

O=C(O)c1cc(=O)c2c(OCC(O)COc3cccc4oc(C(=O)O)cc(=O)c34)cccc2o1 [CROMOLYN]
Not Active: IC50 (Cytochrome P450 1A2) | Ki (Cytochrome P450 1A2) | IC50 [1] | Ki [1] | IC50 (Estrogen receptor) | IC50 [2] | Ki [2] | IC50 [3] | Ki [3] | IC50 [4] | Ki [4] | IC50 [5] | IC50 (Caspase-1) | IC50 [6] | Ki [6]

O=P1(N(CCCl)CCCl)NCCCO1 (stereo not given) [CYCLOPHOSPHAMIDE ANHYDROUS]
Not Active: IC50 (Cytochrome P450 1A2) | Ki (Cytochrome P450 1A2) | IC50 [1] | Ki [1] | IC50 (Estrogen receptor) | IC50 [2] | Ki [2] | IC50 [3] | Ki [3] | IC50 [4] | Ki [4] | IC50 [5] | IC50 (Caspase-1) | IC50 [6] | Ki [6]

CCN[C@@H](C)Cc1cccc(C(F)(F)F)c1 [DEXFENFLURAMINE]
Not Active: IC50 (Cytochrome P450 1A2) | Ki (Cytochrome P450 1A2) | IC50 [1] | Ki [1] | IC50 (Estrogen receptor) | IC50 [2] | Ki [2] | IC50 [3] | Ki [3] | IC50 [4] | Ki [4] | IC50 [5] | IC50 (Caspase-1) | IC50 [6] | Ki [6]

C[C@H](C(=O)O)c1cccc(C(=O)c2ccccc2)c1 [DEXKETOPROFEN]
Not Active: IC50 (Cytochrome P450 1A2) | Ki (Cytochrome P450 1A2) | IC50 [1] | Ki [1] | IC50 (Estrogen receptor) | IC50 [2] | Ki [2] | IC50 [3] | Ki [3] | IC50 [4] | Ki [4] | IC50 [5] | IC50 (Caspase-1) | IC50 [6] | Ki [6]

CN1C[C@H](C(=O)N[C@]2(C)O[C@@]3(O)[C@@H]4CCCN4C(=O)[C@H](Cc4ccccc4)N3C2=O)C[C@@H]2c3cccc4[nH]cc(c34)C[C@H]21 [DIHYDROERGOTAMINE]
Not Active: IC50 (Cytochrome P450 1A2) | Ki (Cytochrome P450 1A2) | IC50 [1] | Ki [1] | IC50 (Estrogen receptor) | IC50 [2] | Ki [2] | IC50 [3] | Ki [3] | IC50 [4] | Ki [4] | IC50 [5] | IC50 (Caspase-1) | IC50 [6] | Ki [6]

CC(CCc1ccc(O)cc1)NCCc1ccc(O)c(O)c1 (stereo not given) [DOBUTAMINE]
Not Active: IC50 (Cytochrome P450 1A2) | Ki (Cytochrome P450 1A2) | IC50 [1] | Ki [1] | IC50 (Estrogen receptor) | IC50 [2] | Ki [2] | IC50 [3] | Ki [3] | IC50 [4] | Ki [4] | IC50 [5] | IC50 (Caspase-1) | IC50 [6] | Ki [6]

CCn1cc(C(=O)O)c(=O)c2cc(F)c(N3CCNCC3)nc21 [ENOXACIN]
Not Active: IC50 (Cytochrome P450 1A2) | Ki (Cytochrome P450 1A2) | IC50 [1] | Ki [1] | IC50 (Estrogen receptor) | IC50 [2] | Ki [2] | IC50 [3] | Ki [3] | IC50 [4] | Ki [4] | IC50 [5] | IC50 (Caspase-1) | IC50 [6] | Ki [6]

CCC(=O)O[C@H]1[C@H](O[C@@H]2[C@@H](C)[C@H](O[C@H]3C[C@@](C)(OC)[C@@H](O)[C@H](C)O3)[C@@H](C)C(=O)O[C@H](CC)[C@@](C)(O)[C@H](O)[C@@H](C)C(=O)[C@H](C)C[C@@]2(C)O)O[C@H](C)C[C@@H]1N(C)C [ERYTHROMYCIN PROPIONATE]
Not Active: IC50 (Cytochrome P450 1A2) | Ki (Cytochrome P450 1A2) | IC50 [1] | Ki [1] | IC50 (Estrogen receptor) | IC50 [2] | Ki [2] | IC50 [3] | Ki [3] | IC50 [4] | Ki [4] | IC50 [5] | IC50 (Caspase-1) | IC50 [6] | Ki [6]
